Experimental data reported in ChEMBL document CHEMBL4052763, “Discovery of dual Axl/VEGF-R2 inhibitors as potential anti-angiogenic and anti-metastatic drugs for cancer chemotherapy” (Bioorg Med Chem Lett, 2017).
pEC50, pIC50: −log10 of the molar value.

What was measured:
[1] = target: T1, Tyrosine-protein kinase receptor UFO (Homo sapiens, UniProt P30530); experiment: Inhibition of Axl in human HeLa cells assessed as reduction in AKT phosphorylation at Ser 473 residues pre-incubated for 1 hr before preclustered anti-Axl antibody stimulation by Western blot analysis; assay type: cell-based
T1 sequence (P30530 whole entry): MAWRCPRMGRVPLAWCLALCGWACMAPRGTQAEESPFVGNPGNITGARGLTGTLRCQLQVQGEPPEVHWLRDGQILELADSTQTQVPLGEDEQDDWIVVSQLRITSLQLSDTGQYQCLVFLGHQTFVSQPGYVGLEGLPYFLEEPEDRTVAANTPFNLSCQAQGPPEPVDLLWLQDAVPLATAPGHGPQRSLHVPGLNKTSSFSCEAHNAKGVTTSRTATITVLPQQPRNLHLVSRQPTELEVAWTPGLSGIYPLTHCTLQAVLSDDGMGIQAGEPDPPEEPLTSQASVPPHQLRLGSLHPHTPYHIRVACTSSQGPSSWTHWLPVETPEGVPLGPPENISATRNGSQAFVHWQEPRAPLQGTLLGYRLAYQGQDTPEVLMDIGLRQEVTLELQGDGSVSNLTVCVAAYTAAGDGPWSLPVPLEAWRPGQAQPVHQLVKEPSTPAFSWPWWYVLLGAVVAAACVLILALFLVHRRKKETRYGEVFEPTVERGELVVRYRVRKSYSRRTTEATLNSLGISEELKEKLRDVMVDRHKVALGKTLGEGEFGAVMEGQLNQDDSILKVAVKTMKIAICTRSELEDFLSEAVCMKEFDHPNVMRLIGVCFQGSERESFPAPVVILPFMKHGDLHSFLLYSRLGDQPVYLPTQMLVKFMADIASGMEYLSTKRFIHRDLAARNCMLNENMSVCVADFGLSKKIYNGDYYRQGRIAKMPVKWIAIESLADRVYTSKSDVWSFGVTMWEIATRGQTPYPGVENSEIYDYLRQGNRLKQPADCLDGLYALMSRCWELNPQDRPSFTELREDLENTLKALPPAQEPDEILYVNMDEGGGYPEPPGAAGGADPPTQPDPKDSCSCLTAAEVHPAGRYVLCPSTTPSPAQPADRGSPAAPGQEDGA

[2] = target: Vascular endothelial growth factor receptor 2 (Homo sapiens, UniProt P35968); experiment: Inhibition of VEGF stimulated VEGFR2 phosphorylation at […] residues in HUVEC preincubated for 1 hr followed by VEGF addition measured after 5 mins by Western blot analysis
MDA-MB-231 [3] = experiment: Antitumor activity against human MDA-MB-231 cells xenografted in nu/nu mouse assessed as tumor growth inhibition at 80 mg/kg, qd after 21 days relative to control; assay type: functional; details: MDA-MB-231, 504 h, read-out: TGI
CAKI-1 [4] = experiment: Antitumor activity against human Caki1 cells xenografted model assessed as tumor growth inhibition at 80 mg/kg, po qd relative to control; assay type: functional; details: CAKI-1, po, read-out: TGI
Mus musculus [5] = experiment: Inhibition of fibroblast growth factor-induced neovascularization in mouse corneal micropocket at 80 mg/kg, qd relative to control; assay type: functional
Insulin receptor = Insulin receptor (Homo sapiens, UniProt P06213); experiment: Inhibition of insulin stimulated INSR phosphorylation in human HeLa cells preincubated for 1 hr followed by insulin addition measured after 5 mins by Western blot analysis; assay type: cell-based
[6] = target: T1, Tyrosine-protein kinase receptor UFO; experiment: Inhibition of N-terminal GST-tagged human Axl (464 to 885 end residues) cytoplasmic domain expressed in baculovirus expression system using HS1 peptide as substrate after 40 mins in presence of ATP by fluorescence polarization assay
[7] = Clearance in iv dosed Sprague-Dawley rat; assay type: ADME, organism-based; details: in vivo
[8] = Volume of distribution at steady state in iv dosed Sprague-Dawley rat; assay type: ADME, organism-based; details: in vivo, read-out: Vdss
[9] = Half life in iv dosed Sprague-Dawley rat; assay type: ADME, organism-based; details: in vivo
[10] = Aqueous solubility of the compound; assay type: physicochemical; details: buffer
[11] = Oral bioavailability in Sprague-Dawley rat; assay type: ADME, organism-based; details: in vivo
MDA-MB-231 [12] = experiment: Antitumor activity against human MDA-MB-231 cells xenografted in nu/nu mouse assessed as tumor growth delay at 125 mg/kg, po bid after 21 days relative to control; assay type: functional
CAKI-1 [13] = experiment: Antitumor activity against human Caki1 cells xenografted model assessed as tumor growth inhibition at 85 mg/kg, po bid relative to control; assay type: functional; details: CAKI-1, po, read-out: TGI
MDA-MB-231 [14] = experiment: Antitumor activity against human MDA-MB-231 cells xenografted in nu/nu mouse assessed as tumor growth inhibition at 85 mg/kg, po bid after 21 days relative to control; assay type: functional; details: MDA-MB-231, po, 504 h, read-out: TGI
MDA-MB-231 [15] = experiment: Antitumor activity against human MDA-MB-231 cells xenografted in nu/nu mouse assessed as tumor growth inhibition at 125 mg/kg, po bid after 21 days relative to control; assay type: functional; details: MDA-MB-231, po, 504 h, read-out: TGI
Mus musculus [16] = experiment: Inhibition of fibroblast growth factor-induced neovascularization in mouse corneal micropocket at 100 mg/kg, bid relative to control; assay type: functional
Mus musculus [17] = experiment: Inhibition of fibroblast growth factor-induced neovascularization in mouse corneal micropocket at 50 mg/kg, bid relative to control; assay type: functional
Mus musculus [18] = experiment: Toxicity in nu/nu mouse xenografted with human MDA-MB-231 cells at 125 mg/kg, po bid after 21 days; assay type: organism-based; details: in vivo, 504 h
Mus musculus [19] = experiment: Toxicity in nu/nu mouse xenografted with human MDA-MB-231 cells at 85 mg/kg, po bid after 21 days; assay type: organism-based; details: in vivo, 504 h

Vascular endothelial growth factor receptor 2, sequence (P35968 whole entry): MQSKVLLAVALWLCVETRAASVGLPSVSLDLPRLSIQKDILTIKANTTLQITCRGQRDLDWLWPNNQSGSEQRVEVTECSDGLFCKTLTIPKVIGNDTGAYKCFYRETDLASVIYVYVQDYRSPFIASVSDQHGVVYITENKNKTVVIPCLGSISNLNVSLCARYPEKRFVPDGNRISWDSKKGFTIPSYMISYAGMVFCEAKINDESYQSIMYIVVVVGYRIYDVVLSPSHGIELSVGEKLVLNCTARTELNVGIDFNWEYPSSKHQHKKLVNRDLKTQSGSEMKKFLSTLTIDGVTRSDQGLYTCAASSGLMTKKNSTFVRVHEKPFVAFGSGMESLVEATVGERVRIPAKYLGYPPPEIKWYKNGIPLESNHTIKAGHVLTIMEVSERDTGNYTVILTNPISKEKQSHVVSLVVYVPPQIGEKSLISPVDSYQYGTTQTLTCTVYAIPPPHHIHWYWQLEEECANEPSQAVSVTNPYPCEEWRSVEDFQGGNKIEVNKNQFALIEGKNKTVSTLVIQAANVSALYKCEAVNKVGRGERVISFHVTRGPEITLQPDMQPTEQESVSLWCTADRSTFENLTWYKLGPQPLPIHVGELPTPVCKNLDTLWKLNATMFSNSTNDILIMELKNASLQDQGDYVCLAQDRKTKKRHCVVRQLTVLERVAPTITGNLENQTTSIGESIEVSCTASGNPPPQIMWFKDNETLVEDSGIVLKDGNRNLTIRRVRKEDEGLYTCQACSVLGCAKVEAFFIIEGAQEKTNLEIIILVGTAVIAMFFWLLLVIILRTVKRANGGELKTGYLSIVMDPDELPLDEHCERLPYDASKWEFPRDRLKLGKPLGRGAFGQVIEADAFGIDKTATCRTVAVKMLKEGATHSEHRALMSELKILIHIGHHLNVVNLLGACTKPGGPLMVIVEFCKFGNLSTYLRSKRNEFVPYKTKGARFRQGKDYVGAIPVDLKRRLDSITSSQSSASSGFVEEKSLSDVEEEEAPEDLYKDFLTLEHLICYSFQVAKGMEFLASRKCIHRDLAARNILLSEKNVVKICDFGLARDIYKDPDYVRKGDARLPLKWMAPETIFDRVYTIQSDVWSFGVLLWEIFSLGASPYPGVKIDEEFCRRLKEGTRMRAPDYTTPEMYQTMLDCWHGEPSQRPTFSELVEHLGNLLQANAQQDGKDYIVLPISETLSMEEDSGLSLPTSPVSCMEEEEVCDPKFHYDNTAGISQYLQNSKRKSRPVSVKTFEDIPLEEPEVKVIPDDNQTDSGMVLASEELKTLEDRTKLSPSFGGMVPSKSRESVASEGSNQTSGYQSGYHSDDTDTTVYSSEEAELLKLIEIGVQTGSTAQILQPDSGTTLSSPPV
Insulin receptor, sequence (P06213 28-758 limits assumed): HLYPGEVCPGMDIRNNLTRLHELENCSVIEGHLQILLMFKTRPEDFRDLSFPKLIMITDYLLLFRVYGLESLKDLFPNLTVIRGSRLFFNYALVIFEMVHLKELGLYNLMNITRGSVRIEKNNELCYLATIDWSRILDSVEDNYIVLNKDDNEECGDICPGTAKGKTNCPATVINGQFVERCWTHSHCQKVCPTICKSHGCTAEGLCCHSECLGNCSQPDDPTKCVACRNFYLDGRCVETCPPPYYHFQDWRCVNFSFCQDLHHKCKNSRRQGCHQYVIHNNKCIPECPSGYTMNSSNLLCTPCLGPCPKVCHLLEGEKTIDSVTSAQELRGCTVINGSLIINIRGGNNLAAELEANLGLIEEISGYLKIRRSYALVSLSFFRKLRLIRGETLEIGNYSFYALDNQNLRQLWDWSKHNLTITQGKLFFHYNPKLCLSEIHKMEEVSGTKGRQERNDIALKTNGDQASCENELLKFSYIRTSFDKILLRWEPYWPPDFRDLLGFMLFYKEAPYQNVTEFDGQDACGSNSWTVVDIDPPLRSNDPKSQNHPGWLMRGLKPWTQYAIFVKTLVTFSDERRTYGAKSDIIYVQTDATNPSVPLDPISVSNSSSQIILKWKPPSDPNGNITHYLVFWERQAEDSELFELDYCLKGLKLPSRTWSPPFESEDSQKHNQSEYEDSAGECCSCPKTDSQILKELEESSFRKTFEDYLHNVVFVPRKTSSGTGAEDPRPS
Insulin receptor, sequence (P06213 763-1382 limits assumed): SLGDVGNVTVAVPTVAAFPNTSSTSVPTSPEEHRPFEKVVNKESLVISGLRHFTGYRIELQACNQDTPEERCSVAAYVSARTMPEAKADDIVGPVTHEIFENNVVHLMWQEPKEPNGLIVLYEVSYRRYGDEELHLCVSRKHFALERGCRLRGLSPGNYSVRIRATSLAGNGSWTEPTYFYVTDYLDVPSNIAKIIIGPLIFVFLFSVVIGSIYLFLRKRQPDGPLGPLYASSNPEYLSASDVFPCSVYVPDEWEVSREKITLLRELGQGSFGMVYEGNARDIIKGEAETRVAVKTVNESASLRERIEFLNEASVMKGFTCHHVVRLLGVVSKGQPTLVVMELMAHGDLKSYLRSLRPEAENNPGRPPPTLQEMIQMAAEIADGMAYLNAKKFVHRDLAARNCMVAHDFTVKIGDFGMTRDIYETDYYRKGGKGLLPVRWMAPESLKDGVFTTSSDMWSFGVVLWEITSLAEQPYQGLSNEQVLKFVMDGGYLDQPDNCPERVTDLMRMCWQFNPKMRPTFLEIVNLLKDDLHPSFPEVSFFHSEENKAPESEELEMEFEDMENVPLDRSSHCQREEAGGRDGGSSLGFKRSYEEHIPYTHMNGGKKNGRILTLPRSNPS

Row | pEC50 [1] | pEC50 [2] | pEC50 (Insulin receptor) | SMILES | other results
1 | 7.68 | 7.62 |  | Nc1nc(Nc2ccc(N3CCN(C4CC5CCC4C5)CC3)cc2)nn1-c1ncnc2ccsc12 (racemic) | 
2 | 6.48 |  |  | Nc1nc(Nc2ccc(OCCN3CCCC3)c(F)c2)nn1-c1ccccn1 | 
3 |  |  |  | CCN(CC)CCNC(=O)c1c(C)[nH]c(/C=C2\C(=O)Nc3ccc(F)cc32)c1C [SUNITINIB] | inhibition in vivo at 80 mg/kg (MDA-MB-231 [3]): 84%; inhibition in vivo at 80 mg/kg (CAKI-1 [4]): 85%; inhibition in vivo at 80 mg/kg (Mus musculus [5]): 78%
4 | 7.07 | 6.80 |  | Nc1nc(Nc2ccc(N3CCN(C4CC5CCC4C5)CC3)c(Cl)c2)nn1-c1ncnc2sccc12 (racemic) | 
5 |  | 6.98 |  | Cc1nc(-n2nc(Nc3ccc(N4CCN(C5CC6CCC5C6)CC4)cc3)nc2N)c2ccccc2n1 (racemic) | 
6 | 7.28 | 8.40 | 5.74 | COc1cc2ncnc(-n3nc(Nc4ccc(OC5CCCN(C)C5)cc4)nc3N)c2cc1OC (configuration not stated) | 
7 |  |  | 6.52 | Nc1nc(Nc2ccc(OCCN3CCCC3)cc2)nn1-c1ncnc2c1sc1ccccc12 | 
8 | 7.08 | 7.10 |  | CC(C)(C)c1cc2ncnc(-n3nc(Nc4ccc(N5CCN(C6CC7CCC6C7)CC5)c(Cl)c4)nc3N)c2s1 (racemic) | 
9 | 7.57 |  | 6.62 | Nc1nc(Nc2ccc(OCCN3CCCC3)cc2)nn1-c1nc(Cl)nc2ccccc12 | pIC50 [6]: 8.15
10 |  |  | 5.38 | COc1cc2ncnc(-n3nc(Nc4ccc(OCCN5CCCC5)c(Cl)c4)nc3N)c2cc1OC | 
11 | 6.67 |  |  | Cc1csc2c(-n3nc(Nc4ccc(N5CCN([C@@H]6C[C@H]7CC[C@@H]6C7)CC5)c(Cl)c4)nc3N)nc(Cl)nc12 | 
12 |  |  |  | Nc1nc(Nc2ccc(N3CCN(C4CC5CCC4C5)CC3)cc2)nn1-c1nccc2ccccc12 (racemic) | clearance [7]: 52 mL/min/kg; Vd [8]: 8.8 L/kg; half-life [9]: 2.3 h
13 | 7.80 | 7.85 | 5.88 | COc1cc2ncnc(-n3nc(Nc4ccc(C5CCN(C)CC5)cc4)nc3N)c2cc1OC | 
14 |  | 6.71 |  | Nc1nc(Nc2ccc(N3CCN(C4CC5CCC4C5)CC3)cc2)nn1-c1ncnc2ccc(Cl)cc12 (racemic) | 
15 | 7.33 |  | 5.56 | Nc1nc(Nc2ccc(OCCN3CCCC3)c(F)c2)nn1C(=O)c1ccc(N2CCOCC2)cc1 | solubility [10]: Insoluble; bioavailability [11]: < 1%
16 | 6.71 | 7.72 | 5.32 | COc1cc2ncnc(-n3nc(Nc4ccc(N5CC[C@H](N(C)C)C5)cc4)nc3N)c2cc1OC | 
17 |  | 7.19 |  | Cc1csc2c(-n3nc(Nc4ccc(N5CCN(C6CC7CCC6C7)CC5)cc4)nc3N)nc(Cl)nc12 (racemic) | clearance [7]: 11.5 mL/min/kg; Vd [8]: 4.4 L/kg; half-life [9]: 4.9 h
18 |  | 7.33 | < 5.00 | COc1cc2ncnc(-n3nc(Nc4ccc(N5CCN(C6CC7CCC6C7)CC5)c(Cl)c4)nc3N)c2cc1OC (configuration not stated) | clearance [7]: 117 mL/min/kg; Vd [8]: 27 L/kg; half-life [9]: 2.7 h
19 | 7.28 | 7.62 |  | Nc1nc(Nc2ccc(N3CCN(C4CC5CCC4C5)CC3)cc2)nn1-c1ncnc2c1sc1ncccc12 (racemic) | 
20 | 6.87 |  |  | Cc1csc2c(-n3nc(Nc4ccc(N5CCN([C@H]6C[C@@H]7CC[C@H]6C7)CC5)c(Cl)c4)nc3N)nc(Cl)nc12 | Activity (MDA-MB-231 [12]): 79%; inhibition in vivo at 85 mg/kg (CAKI-1 [13]): 80%; inhibition in vivo at 85 mg/kg (MDA-MB-231 [14]): 69%; inhibition in vivo at 125 mg/kg (MDA-MB-231 [15]): 83%; inhibition in vivo at 100 mg/kg (Mus musculus [16]): 73%; inhibition in vivo at 50 mg/kg (Mus musculus [17]): 50%; Activity (Mus musculus [18]): Toxic; Activity (Mus musculus [19]): Non-Toxic
21 | 7.41 | 8.52 | 5.34 | COc1cc2ncnc(-n3nc(Nc4ccc(N5CCN(C)CC5)cc4)nc3N)c2cc1OC | 
22 | 7.26 | 7.59 | 5.30 | COc1cc2ncnc(-n3nc(Nc4ccc(N5CCN(C6CCCCC6)CC5)c(F)c4)nc3N)c2cc1OC | 
23 |  |  | 6.24 | Cc1csc2c(-n3nc(Nc4ccc(OCCN5CCCC5)cc4)nc3N)nc(Cl)nc12 | 
24 |  |  | 6.49 | Cc1nc(-n2nc(Nc3ccc(OCCN4CCCC4)cc3)nc2N)c2ccccc2n1 | 
25 | 7.21 | 7.05 |  | Cc1csc2c(-n3nc(Nc4ccc(N5CCN(C6CC7CCC6C7)CC5)c(F)c4)nc3N)ncnc12 (racemic) | 
26 |  |  | 7.85 | Nc1nc(Nc2ccc(OCCN3CCCC3)cc2)nn1-c1ncnc2ccc(Cl)cc12 | 
27 | 7.70 |  |  | Nc1nc(Nc2ccc(N3CCN(C4CC5CCC4C5)CC3)c(F)c2)nn1-c1ncnc2ccsc12 (racemic) | 
28 |  |  | 6.00 | Nc1nc(Nc2ccc(OCCN3CCCC3)cc2)nn1-c1ncnc2c1CCC2 | 
29 |  |  | 6.90 | Nc1nc(Nc2ccc(OCCN3CCCC3)cc2)nn1-c1ncnc2ccc(F)cc12 | 
30 |  | 6.84 |  | Nc1nc(Nc2ccc(N3CCN(C4CC5CCC4C5)CC3)cc2)nn1-c1ncnc2ccc(F)cc12 (racemic) | clearance [7]: 44 mL/min/kg; Vd [8]: 7.9 L/kg; half-life [9]: 2.3 h
